Key:
Format in all cases: functional
Solanum = assay: Herbicidal activity against Solanum assessed as control at 1 kg/hacter post-emergently
Amaranthus spinosus = assay: Herbicidal activity against Amaranthus spinosus assessed as control at 1 kg/hacter post-emergently
Abutilon = assay: Herbicidal activity against Abutilon assessed as control at 1 kg/hacter post-emergently
[1] = Herbicidal activity against biennial weeds assessed as control at 1 kg/hacter post-emergently

Structure (SMILES) | Efficacy (Solanum) [%] | Efficacy (Amaranthus spinosus) [%] | Efficacy (Abutilon) [%] | Efficacy [1] [%]
CCCC[C@H]1O[C@H]1CCOc1cccc([C@@H]2CCC[C@H](CC(=O)OC)O2)c1 | 90 | 30 | 10 | 10
COC(=O)C[C@H]1CC[C@H](C)[C@@H](/C(C)=C/C=C/[C@@H](C)C[C@@]2(C)O[C@@H]2[C@H](C)[C@@H](OC)[C@@H](C)O)O1 [HERBOXIDIENE METHYL ESTER] | 100 | 100 | 100 | 100

From ChEMBL document CHEMBL3046538, “Synthesis of simplified herboxidiene aromatic hybrids” (2000)
